Data taken from ChEMBL document CHEMBL3885861, “Open TG-GATES”.

Species: Rattus norvegicus
Assay: Open TG-GATES - Regimen: Single
Assay type: toxicity, organism-based, Sprague-Dawley
Design: regimen Single, gender Male, age 6 weeks
Details: in vivo, po, 30 mg/kg, route gavage, dose level Middle; for APTT / Bas / Eos / Fbg / Hb / Ht / Lym / MCH / MCHC / MCV / Mono / Neu / PT / Plat / RBC / Ret / WBC: tissue Blood; for KIDNEY_L / KIDNEY_R / KIDNEY_TOTAL: tissue Kidney; for LIVER: tissue Liver; for A/G / ALP / ALT / AST / BUN / CRE / Ca / Cl / DBIL / GLC / IP / K / LDH / Na / PL / RALB / TBIL / TC / TG / TP / gamma-GTP: tissue Plasma

In the case of `OCCOCCN1CCN(C(c2ccccc2)c2ccc(Cl)cc2)CC1` (configuration not stated) [HYDROXYZINE], the TERMINAL_BW (3 h) is reported as 193.6 g, the APTT (3 h) is reported as 15.6 s and the Bas (3 h) is reported as 0.2%. For the same compound, the Eos (3 h) was 0.8%, the Fbg (3 h) was 288.4 mg/dL and the Hb (3 h) was 13 g/dL. For the same compound, the Ht (3 h) was 40.6%, the Lym (3 h) was 75.4% and the MCH (3 h) was 21.5 pg. It also gave an MCHC (3 h) of 31.9%, an MCV (3 h) of 67.3 fL and a Mono (3 h) of 3.4%. It also gave a Neu (3 h) of 19.6%, a PT (3 h) of 15.6 s and a Plat (3 h) of 107 x10_4/uL. The RBC (3 h) was 604.4 x10_4/ul, the Ret (3 h) was 8.9% and the WBC (3 h) was 83.3 x10_2/uL. For the same compound, the KIDNEY_L (3 h) was 0.9 g, the KIDNEY_R (3 h) was 0.9 g and the KIDNEY_TOTAL (3 h) was 1.8 g. The LIVER (3 h) was 8.7 g, the A/G (3 h) was 0.8 and the ALP (3 h) was 1908.4 IU/L. The ALT (3 h) was 42.4 IU/L, the AST (3 h) was 74.8 IU/L and the BUN (3 h) was 9.2 mg/dL. It also gave a CRE (3 h) of 0.2 mg/dL, a Ca (3 h) of 10.9 mg/dL and a Cl (3 h) of 106.2 meq/L. It also gave a DBIL (3 h) of 0.012 mg/dL, a GLC (3 h) of 173.4 mg/dL and an IP (3 h) of 9.1 mg/dL. For the same compound, the K (3 h) was 4.4 meq/L, the LDH (3 h) was 76 IU/L and the Na (3 h) was 142 meq/L. For the same compound, the PL (3 h) was 140 mg/dL, the RALB (3 h) was 2.5 g/dL and the TBIL (3 h) was 0.058 mg/dL. It also gave a TC (3 h) of 78.6 mg/dL, a TG (3 h) of 33.2 mg/dL and a TP (3 h) of 5.4 g/dL. For the same compound, the gamma-GTP (3 h) was 1 IU/L, the TERMINAL_BW (6 h) was 192 g and the APTT (6 h) was 15.5 s. It also gave a Bas (6 h) of 0.2%, an Eos (6 h) of 0.6% and a Fbg (6 h) of 289.4 mg/dL. It also gave a Hb (6 h) of 12.9 g/dL, a Ht (6 h) of 39.9% and a Lym (6 h) of 78.8%. The MCH (6 h) was 21.4 pg, the MCHC (6 h) was 32.2% and the MCV (6 h) was 66.4 fL. It also gave a Mono (6 h) of 3%, a Neu (6 h) of 16.8% and a PT (6 h) of 15.1 s. For the same compound, the Plat (6 h) was 115.9 x10_4/uL, the RBC (6 h) was 601.6 x10_4/ul and the Ret (6 h) was 8.8%. It also gave a WBC (6 h) of 67.5 x10_2/uL, a KIDNEY_L (6 h) of 0.9 g and a KIDNEY_R (6 h) of 0.9 g. The KIDNEY_TOTAL (6 h) was 1.8 g, the LIVER (6 h) was 8.4 g and the A/G (6 h) was 0.9. For the same compound, the ALP (6 h) was 1397.6 IU/L, the ALT (6 h) was 38.8 IU/L and the AST (6 h) was 73.6 IU/L. It also gave a BUN (6 h) of 8.4 mg/dL, a CRE (6 h) of 0.2 mg/dL and a Ca (6 h) of 10.9 mg/dL. It also gave a Cl (6 h) of 105.8 meq/L, a DBIL (6 h) of 0.01 mg/dL and a GLC (6 h) of 180.4 mg/dL. The IP (6 h) was 10.5 mg/dL, the K (6 h) was 4.3 meq/L and the LDH (6 h) was 69.2 IU/L. For the same compound, the Na (6 h) was 142.6 meq/L, the PL (6 h) was 141.8 mg/dL and the RALB (6 h) was 2.5 g/dL. It also gave a TBIL (6 h) of 0.064 mg/dL, a TC (6 h) of 83.2 mg/dL and a TG (6 h) of 40.6 mg/dL. It also gave a TP (6 h) of 5.5 g/dL, a gamma-GTP (6 h) of 0.8 IU/L and a TERMINAL_BW (9 h) of 190.8 g. For the same compound, the APTT (9 h) was 15.9 s, the Bas (9 h) was 0% and the Eos (9 h) was 0.8%. It also gave a Fbg (9 h) of 281.8 mg/dL, a Hb (9 h) of 12.9 g/dL and a Ht (9 h) of 40%. It also gave a Lym (9 h) of 79%, an MCH (9 h) of 21.7 pg and an MCHC (9 h) of 32.3%. It also gave an MCV (9 h) of 67.1 fL, a Mono (9 h) of 2.6% and a Neu (9 h) of 17.2%. The PT (9 h) was 15.4 s, the Plat (9 h) was 104.8 x10_4/uL and the RBC (9 h) was 595.6 x10_4/ul. For the same compound, the Ret (9 h) was 8.8%, the WBC (9 h) was 60.3 x10_2/uL and the KIDNEY_L (9 h) was 0.9 g. For the same compound, the KIDNEY_R (9 h) was 0.9 g, the KIDNEY_TOTAL (9 h) was 1.7 g and the LIVER (9 h) was 8.2 g. It also gave an A/G (9 h) of 0.9, an ALP (9 h) of 1266.8 IU/L and an ALT (9 h) of 38 IU/L. For the same compound, the AST (9 h) was 70.2 IU/L, the BUN (9 h) was 9 mg/dL and the CRE (9 h) was 0.2 mg/dL. The Ca (9 h) was 10.7 mg/dL, the Cl (9 h) was 107 meq/L and the DBIL (9 h) was 0.01 mg/dL. The GLC (9 h) was 171.6 mg/dL, the IP (9 h) was 10.2 mg/dL and the K (9 h) was 4 meq/L. It also gave an LDH (9 h) of 83.6 IU/L, a Na (9 h) of 142.8 meq/L and a PL (9 h) of 127.8 mg/dL. The RALB (9 h) was 2.5 g/dL, the TBIL (9 h) was 0.06 mg/dL and the TC (9 h) was 67.6 mg/dL. The TG (9 h) was 43 mg/dL, the TP (9 h) was 5.4 g/dL and the gamma-GTP (9 h) was 1 IU/L. The TERMINAL_BW (24 h) was 210 g, the APTT (24 h) was 16.7 s and the Bas (24 h) was 0.2%. It also gave an Eos (24 h) of 0.8%, a Fbg (24 h) of 268 mg/dL and a Hb (24 h) of 12.7 g/dL. The Ht (24 h) was 39.4%, the Lym (24 h) was 74.6% and the MCH (24 h) was 21.3 pg. The MCHC (24 h) was 32.3%, the MCV (24 h) was 65.9 fL and the Mono (24 h) was 3.8%. The Neu (24 h) was 20.4%, the PT (24 h) was 16.1 s and the Plat (24 h) was 122 x10_4/uL. For the same compound, the RBC (24 h) was 599.2 x10_4/ul, the Ret (24 h) was 8% and the WBC (24 h) was 75.2 x10_2/uL. For the same compound, the KIDNEY_L (24 h) was 0.9 g, the KIDNEY_R (24 h) was 0.9 g and the KIDNEY_TOTAL (24 h) was 1.8 g. For the same compound, the LIVER (24 h) was 10.1 g, the A/G (24 h) was 0.8 and the ALP (24 h) was 1659 IU/L. It also gave an ALT (24 h) of 45.8 IU/L, an AST (24 h) of 68.6 IU/L and a BUN (24 h) of 14 mg/dL. It also gave a CRE (24 h) of 0.2 mg/dL, a Ca (24 h) of 11.2 mg/dL and a Cl (24 h) of 106.6 meq/L. It also gave a DBIL (24 h) of 0.018 mg/dL, a GLC (24 h) of 188.2 mg/dL and an IP (24 h) of 7.9 mg/dL. For the same compound, the K (24 h) was 4.1 meq/L, the LDH (24 h) was 75.2 IU/L and the Na (24 h) was 142.8 meq/L. The PL (24 h) was 153.4 mg/dL, the RALB (24 h) was 2.6 g/dL and the TBIL (24 h) was 0.054 mg/dL. The TC (24 h) was 79.2 mg/dL, the TG (24 h) was 82 mg/dL and the TP (24 h) was 5.6 g/dL. For the same compound, the gamma-GTP (24 h) was 1 IU/L.
